Experimental data reported in paper PMC6560083, “A mechanism to prevent production of reactive oxygen species by Escherichia coli respiratory complex I” (Nature Communications, 2019).
Substitutions are numbered along the chain they refer to. Names and notes keep the numbering of the source.

What was measured:
[1] = molecular target: T1, NuoEF of Aquifex aeolicus complex I (Aquifex aeolicus, UniProt O66841); assay: X-ray crystal structure, soaked crystals; type: binding; conditions: oxidized; ADP moiety defined, nicotinamide ring and its ribose not seen
T1 construct: gene nuoF; electron input subcomplex, NuoE (18 kDa) and NuoF (44 kDa) heterodimer, C-terminal hexahistidine tag on NuoF, expressed in E. coli; with NADH-quinone oxidoreductase subunit E
Target sequence in this assay (O66842 whole entry G129D, form open, one chain of several): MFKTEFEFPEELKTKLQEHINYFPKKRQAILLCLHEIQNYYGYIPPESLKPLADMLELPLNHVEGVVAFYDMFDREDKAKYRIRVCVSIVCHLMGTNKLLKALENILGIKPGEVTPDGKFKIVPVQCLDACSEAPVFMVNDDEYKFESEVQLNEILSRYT

[2] = molecular target: T1, NuoEF of Aquifex aeolicus complex I; assay: X-ray crystal structure, soaked crystals; type: binding; conditions: oxidized
Target sequence in this assay (O66842 whole entry G129S, form open, one chain of several, further chain): as the sequence (O66842 whole entry G129D, form open, one chain of several) above, with D129S counted along it

[3] = molecular target: T2, NuoEF of Aquifex aeolicus complex I (Aquifex aeolicus, UniProt O66841, S96M); assay: X-ray crystal structure, soaked crystals; type: binding
T2 construct: gene nuoF; electron input subcomplex, NuoE (18 kDa) and NuoF (44 kDa) heterodimer, C-terminal hexahistidine tag on NuoF, expressed in E. coli; with NADH-quinone oxidoreductase subunit E
T2 sequence (O66841 whole entry S96M, one chain of several): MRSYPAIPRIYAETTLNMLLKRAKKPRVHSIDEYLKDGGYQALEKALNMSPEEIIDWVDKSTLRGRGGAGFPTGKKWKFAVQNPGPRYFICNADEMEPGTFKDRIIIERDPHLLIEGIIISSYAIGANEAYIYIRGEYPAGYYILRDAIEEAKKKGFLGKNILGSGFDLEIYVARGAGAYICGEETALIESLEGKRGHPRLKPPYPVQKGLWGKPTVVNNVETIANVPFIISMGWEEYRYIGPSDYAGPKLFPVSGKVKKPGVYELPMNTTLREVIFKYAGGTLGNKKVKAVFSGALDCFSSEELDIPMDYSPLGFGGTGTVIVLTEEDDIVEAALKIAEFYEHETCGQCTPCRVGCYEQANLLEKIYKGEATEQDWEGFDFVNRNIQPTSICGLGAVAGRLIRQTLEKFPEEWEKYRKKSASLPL

[4] = molecular target: T3, NuoEF of Aquifex aeolicus complex I (Aquifex aeolicus, UniProt O66841); assay: X-ray crystal structure, soaked crystals; type: binding
T3 construct: gene nuoF; electron input subcomplex, NuoE (18 kDa) and NuoF (44 kDa) heterodimer, C-terminal hexahistidine tag on NuoF, expressed in E. coli; with NADH-quinone oxidoreductase subunit E
T3 sequence (O66841 1-426): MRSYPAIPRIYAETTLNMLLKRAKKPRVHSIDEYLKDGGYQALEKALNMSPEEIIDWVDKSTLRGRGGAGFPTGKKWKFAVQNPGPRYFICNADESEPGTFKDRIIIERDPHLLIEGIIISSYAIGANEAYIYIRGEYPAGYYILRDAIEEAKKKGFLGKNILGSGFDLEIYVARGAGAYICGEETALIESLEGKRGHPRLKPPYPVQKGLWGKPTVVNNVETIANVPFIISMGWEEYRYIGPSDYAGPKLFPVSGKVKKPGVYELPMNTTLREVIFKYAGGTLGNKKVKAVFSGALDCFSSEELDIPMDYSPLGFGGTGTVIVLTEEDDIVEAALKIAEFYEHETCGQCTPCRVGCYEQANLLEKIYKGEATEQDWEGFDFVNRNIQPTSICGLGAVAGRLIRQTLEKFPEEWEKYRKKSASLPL
T3 sequence (O66842 1-160 partner): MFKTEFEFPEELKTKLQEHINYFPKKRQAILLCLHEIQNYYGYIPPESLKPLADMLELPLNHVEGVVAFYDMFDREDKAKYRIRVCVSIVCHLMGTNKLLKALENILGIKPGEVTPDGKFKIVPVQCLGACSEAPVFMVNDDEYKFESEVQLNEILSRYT

[5] = molecular target: T3, NuoEF of Aquifex aeolicus complex I; assay: X-ray crystal structure; type: binding; conditions: bound cofactor of NuoF, oxidized (6HL2) and dithionite-reduced (6HL4)
[6] = molecular target: T4, Aquifex aeolicus complex I subunit NuoF (Aquifex aeolicus, UniProt O66841 1-426); assay: crystal structure; NuoEF subcomplex crystallized at 20 °C by sitting drop vapor diffusion, 0.1 M Tris/HCl, 1.0 M sodium citrate, pH 6.9-7.1; air-oxidized, dithionite- or NADH-reduced, with and without soaked NAD+ or NADH; conditions: both partners purified
T4 construct: NuoF, subunit of the NADH:ubiquinone oxidoreductase (complex I) of Aquifex aeolicus; 44 kDa; the model contains 418 amino acids, eight residues at the C-terminus and the following hexahistidine tag not defined; Co-produced and co-purified with NuoE as the subcomplex NuoEF; also called original NuoEF (subunit F); source: overproducing E. coli strain, purified together with NuoE (Source 15Q anion …)
T4 sequence (looked up): T3 sequence (O66841 1-426)

[7] = molecular target: T5, Aquifex aeolicus NuoF variant S96M (Aquifex aeolicus, UniProt O66841 1-426, S96M^F); assay: as above; conditions: both partners purified
T5 construct: NuoF of Aquifex aeolicus complex I with S96 exchanged for methionine (the residue at the homologous position of E. coli NuoF); The His tag is told for the original NuoF; the variants were purified in the same way (Ni2+-IDA); also called S96M^F; NuoEF S96M^F; source: overproducing E. coli strain, purified together with NuoE (Source 15Q anion exchange, Ni2+-IDA, size exclusion)
T5 sequence (looked up): T3 sequence (O66841 1-426) with S96M

[8] = substrate: NC(=O)C1=CN([C@@H]2O[C@H](COP(=O)(O)OP(=O)(O)OC[C@H]3O[C@@H](n4cnc5c(N)ncnc54)[C@H](O)[C@@H]3O)[C@@H](O)[C@H]2O)C=CC1; assay: purified protein; type: biochemical, Escherichia coli; conditions: 50 mM MES/NaOH, 50 mM NaCl, pH 6.0, electron acceptor of the Km titration not clearly stated (decyl-ubiquinone or ferricyanide)

For `NC(=O)c1ccc[n+]([C@@H]2O[C@H](COP(=O)(O)OP(=O)(O)OC[C@H]3O[C@@H](n4cnc5c(N)ncnc54)[C@H](O)[C@@H]3O)[C@@H](O)[C@H]2O)c1` [NAD^+], the “X-ray crystal structure, soaked crystals” value [1] was “the oxidized G129D^E variant was soaked with NAD^+”, the “X-ray crystal structure, soaked crystals” value [2] was 6HLJ (variant G129S, oxidized with NAD^+) and the “X-ray crystal structure, soaked crystals” value ([3]; oxidized, 3.22 Å) was 6R7P (variant S96M, oxidized with NAD^+). The “X-ray crystal structure, soaked crystals” value ([4]; oxidized state, 10 mM NAD+ soak, 2.0 Å, loose position, 6HLI: dithionite-reduced, near tight position) was “crystals of NuoEF were soaked with NAD^+, with NADH and with NADH plus dithionite”.

In the case of `NC(=O)C1=CN([C@@H]2O[C@H](COP(=O)(O)OP(=O)(O)OC[C@H]3O[C@@H](n4cnc5c(N)ncnc54)[C@H](O)[C@@H]3O)[C@@H](O)[C@H]2O)C=CC1` [NADH], the “X-ray crystal structure, soaked crystals” value ([3]; reduced) is reported as 6Q9K (variant S96M, reduced with NADH) and the “X-ray crystal structure, soaked crystals” value ([4]; NADH soak, reduced state, 1.8-1.9 Å, nicotinamide in tight position, 6HLA with dithionite plus NADH) is reported as “crystals of NuoEF were soaked with NAD^+, with NADH and with NADH plus dithionite”.

In the case of `Cc1cc2nc3c(=O)[nH]c(=O)nc-3n(C[C@H](O)[C@H](O)[C@H](O)COP(=O)(O)O)c2cc1C` [FMN], the X-ray crystal structure [5] is reported as “Subunit NuoF binds the FMN cofactor as well as cluster N3”.

B1: Aquifex aeolicus complex I subunit NuoE (natural protein)
chain: T3 sequence (O66842 1-160 partner)
notes: NuoE, subunit of the NADH:ubiquinone oxidoreductase (complex I) of Aquifex aeolicus; 18 kDa; the model comprises 154 amino acids, the first six N-terminal residues not defined (residues up to 160); holds the [2Fe-2S] cluster N1a; Co-produced and co-purified with His-tagged NuoF as the subcomplex NuoEF; also called original NuoEF (subunit E); source: overproducing E. coli strain, purified together …
B1: binds [6]; binds [7].

B2: Aquifex aeolicus NuoE variant G129S (natural protein)
chain: T3 sequence (O66842 1-160 partner) with G129S
notes: NuoE of Aquifex aeolicus complex I with G129 exchanged for serine; also called G129S^E; Ser-variant of NuoEF; source: E. coli, purified together with NuoF (Source 15Q anion exchange, Ni2+-IDA, size exclusion)
B2: binds [6].

B3: Aquifex aeolicus NuoE variant G129D (natural protein)
chain: T3 sequence (O66842 1-160 partner) with G129D
notes: NuoE of Aquifex aeolicus complex I with G129 exchanged for aspartate; also called G129D^E; Asp-variant of NuoEF; source: E. coli, purified together with NuoF (Source 15Q anion exchange, Ni2+-IDA, size exclusion)
B3: binds [6].

B4: E. coli complex I (Escherichia coli K-12) (protein)
chain: MKNIIRTPETHPLTWRLRDDKQPVWLDEYRSKNGYEGARKALTGLSPDEIVNQVKDAGLKGRGGAGFSTGLKWSLMPKDESMNIRYLLCNADEMEPGTYKDRLLMEQLPHLLVEGMLISAFALKAYRGYIFLRGEYIEAAVNLRRAIAEATEAGLLGKNIMGTGFDFELFVHTGAGRYICGEETALINSLEGRRANPRSKPPFPATSGAWGKPTCVNNVETLCNVPAILANGVEWYQNISKSKDAGTKLMGFSGRVKNPGLWELPFGTTAREILEDYAGGMRDGLKFKAWQPGGAGTDFLTEAHLDLPMEFESIGKAGSRLGTALAMAVDHEINMVSLVRNLEEFFARESCGWCTPCRDGLPWSVKILRALERGEGQPGDIETLEQLCRFLGPGKTFCAHAPGAVEPLQSAIKYFREEFEAGIKQPFSNTHLINGIQPNLLKERW
notes: with NADH-quinone oxidoreductase subunit E; NADH-quinone oxidoreductase subunit G; NADH-quinone oxidoreductase subunit B; NADH-quinone oxidoreductase subunit C/D; NADH-quinone oxidoreductase subunit I; NADH-quinone oxidoreductase subunit A; NADH-quinone oxidoreductase subunit H; NADH-quinone oxidoreductase subunit J; NADH-quinone oxidoreductase subunit K; NADH-quinone oxidoreductase subunit L; …
In the case of B4, the Km [8] is reported as 13 ± 1 µM.
